Data taken from patent publication US10220069B2, “Compositions and methods for treating diabetes” (THE JOHNS HOPKINS UNIVERSITY, priority 2014, dated 2019).
One block for each compound: values may come before it.

How the values were obtained:
[1] = target: T1, Gcgr (Mus musculus, UniProt Q61606); test: Gcgr antagonist GAI or inactive analog GAC 60 min before ipGTT in HFD and Lepr db/db mice; format: in vivo
T1 construct: endogenous in cells; host or cells: live mice (WT, Gcgrfl/fl, HFD-fed C57Bl/6, Lepr db/db); hepatic receptor
T1 sequence (Q61606 27-485): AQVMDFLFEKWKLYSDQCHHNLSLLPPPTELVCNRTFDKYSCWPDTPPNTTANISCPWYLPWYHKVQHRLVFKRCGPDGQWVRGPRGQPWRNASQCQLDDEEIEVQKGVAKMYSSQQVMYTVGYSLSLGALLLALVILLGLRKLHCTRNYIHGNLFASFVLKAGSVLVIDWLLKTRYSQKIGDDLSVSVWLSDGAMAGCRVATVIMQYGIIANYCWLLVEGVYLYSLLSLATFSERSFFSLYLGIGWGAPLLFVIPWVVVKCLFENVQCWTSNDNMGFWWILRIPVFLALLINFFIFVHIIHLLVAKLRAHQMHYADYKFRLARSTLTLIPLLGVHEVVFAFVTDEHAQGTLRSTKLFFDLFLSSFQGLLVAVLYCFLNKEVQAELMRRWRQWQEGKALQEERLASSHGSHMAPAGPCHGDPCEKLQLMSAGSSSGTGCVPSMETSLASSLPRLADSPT
Description: Intraperitoneal glucose tolerance (ipGTT) and insulin tolerance (ipITT) tests were performed according to standard protocols (Song et al., 2013; Song et al., 2011). After 9 am-3 pm fasting, animals were administered 20% D-glucose (via ip injection), insulin 0.5 U/kg i.p. (Novolin), glucagon (100 μg/kg i.p. (Sigma)). […] The glucagon receptor antagonist GAI (N-(3-Cyano-6-(1,1-dimethylpropyl)-4,5,6,7-tetrahydro-1-benzothien-2-yl)-2-ethylbutanamide (Qureshi et al., 2004) and its non-active analogue were administered (50 mg/kg i.p. in DMSO) in HFD fed and Lepr^db/db mice 60 min before i. GTT. Intraperitoneal pyruvate converstion (1 g/kg i.p.) test (ipPCT) in ΔL-Prkar1a mice was performed in the fed state (9 am) to avoid any confounding effects of fasting-induced elevated endogenous glucagon levels. Tail-vein blood was collected at the indicated times in figures for glucose and insulin measurements. Serum insulin was measured using mouse magnetic bead panel (Millipore, Luminex). Plasma for glucagon measurements was drawn from mice in the fed state at 9 am, unless otherwise noted for fasting studies. Plasma glucagon (Alpco) and kisspeptin1 (USCN Life Sciences Inc. E92559Ra) were measured by ELISA according to manufacturer's instructions including dilution of samples.
Liver Kiss1 Upregulation is Linked to Hyperglucagonemia in DM.

[2] = test system: islets; test: Islets incubated 48 hours with K54: cAMP dependent, ER stress, oxidative stress and NLRP3 inflammasome markers (Table 5); format: cell-based, mouse; conditions: K54 10 nM
Description: Kisspeptin1 Causes ERS and UPR in Islets Independently of Hyperglycemia. […] Because reduction in cAMP signaling in β-cells reduces IRS2 and PDX1 and provokes ERS/UPR and apoptosis 11,12, we examined whether kisspeptin action on β-cells may provoke ERS/UPR. Islets were incubated in 10 nM […]. To control for stimulus for increased insulin biosynthesis and potential UPR response, we incubated islets at 5 and 10 mM glucose. […] Incubation at 10 mM glucose stimulated oxidative stress ERS and NLRP-I markers, but less pronounced than […] at 5 mM glucose. Treatment with […] at high (10 mM) glucose further augmented ERS/UPR, oxidative stress and NLRP3-I markers. Thus, kisspeptin treatment even at normoglycemia stimulates in islets the ERS/UPR response more potently than hyperglycemia (glucose 10 mM) and […] aggravates ERS/UPR induced by hyperglycemia only (Table 5).

[3] = target: T2, Kiss1R (Mus musculus, UniProt Q91V45); test: Islet cAMP concentrations (ELISA) in response to kisspeptin; format: cell-based
T2 construct: Mouse brain, mouse islets, insulinoma cells, and human islets express Kiss1R; from tissue; host or cells: isolated mouse pancreatic islets (WT / Kiss1Rfl/fl, C57Bl/6 background)
T2 sequence (Q91V45 whole entry): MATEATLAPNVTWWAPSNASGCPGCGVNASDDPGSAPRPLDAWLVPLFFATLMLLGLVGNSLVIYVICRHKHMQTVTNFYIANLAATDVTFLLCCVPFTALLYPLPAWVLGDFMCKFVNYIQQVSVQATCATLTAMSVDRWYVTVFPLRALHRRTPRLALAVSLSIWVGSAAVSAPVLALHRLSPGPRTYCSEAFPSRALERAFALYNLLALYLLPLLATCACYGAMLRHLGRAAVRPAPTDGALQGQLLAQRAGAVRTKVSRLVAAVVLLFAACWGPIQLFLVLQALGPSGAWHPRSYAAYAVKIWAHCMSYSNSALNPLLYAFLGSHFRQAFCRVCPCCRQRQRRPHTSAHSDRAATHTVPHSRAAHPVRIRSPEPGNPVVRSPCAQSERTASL
Description: (§1) For studies with plasma incubation, a final concentration of plasma was 1% or 10% (vol/vol). […] Islets were taken in 0.18M HCL/70% ethanol to extract and measure total islet insulin content. cAMP concentrations were measured in islet extracts using ELISA (Enzo Life Sciences).

[4] = target: T2, Kiss1R; test: Islet perifusion assay, first and second phase GSIS; format: cell-based; conditions: isolated mouse islets
Description: Perifusion studies were performed as previously published (Song et al., 2013; Song et al., 2011) with slight modifications. The perifusate was Krebs ringer buffer (KRB) (37 C, pH 7.4) containing 0.2% BSA fraction V, 24 mM sodium bicarbonate and was gassed with 95% air and 5% CO2. Perifusion (1 ml/min) occurred for the first 30 minutes with a KRB containing 3 mM glucose for equilibration, after which time the perifusate was collected in 1 ml fractions. After additional 10 minutes, glucose in the perifusate was increased to 10 mM. […] Insulin was measured in selected individual eluent fractions at 30, 35, 40, 42, 45, 50, 55, 60 min (Alpco ELISA). The first 10 minutes after increasing glucose was defined as first phase, the period thereafter was defined as second phase of insulin secretion. At the end of the perifusion protocol, 30 mM KCL was administered into the perifusate to depolarize β-cells. Insulin levels were normalized to total islet protein, which was spectrophotometrically determined (Eppendorf) after completion of the perifusion protocol.

[5] = target: T2, Kiss1R; test: Glucose stimulated insulin secretion (GSIS) from cultured mouse islets, static incubation; format: cell-based; parameters: GSIS at very high kisspeptin concentration: dose or concentration left out as unconfirmed
Description: Isolated Islet Studies. Islet isolation was performed by collagenase digestion, gradient centrifugation, and three rounds of microscope-assisted manual picking of islets. Static incubation studies were conducted as previously described with 20 handpicked, equal-sized islets were studied in each group (Song et al., 2011). After overnight culture (37_C, 5% CO2, and 95% O2 in humid chamber) of isolated islets in RPMI 1640 (Mediatech) containing 5 mM glucose, 1% each Na-Pyruvate, HEPES, Penicillin/Streptomycin, and 0.2% BSA, islets were switched to either 10 or 20 mM glucose containing RPMI 1640. Where indicated, Kisspeptin-10 (0-100 nM, and […]), E4 (10 nM), or vehicle (PBS) was added. After 30 min incubation glucose concentrations, supernatant was taken for insulin measurements and pelleted islets were taken in acid ethanol (0.18M HCl in 70% ethanol) for insulin measurements in islets (ELISA, Alpco). Islet protein concentration was measured using the BCA method (Thermo Fisher).
Islet studies. Islet isolation was performed by collagenase digestion, gradient centrifugation and three rounds of microscope-assisted manual picking of islets (Song et al., 2011). Static incubation studies were conducted as previously described with 20 hand-picked equalized islets were studied in each group. Islets were cultured in RPMI 1640 medium (Invitrogen) containing 10 or 20 mM D-glucose (as indicated) and supplemented with 0.2% bovine serum albumin, 1% each Na-Pyruvate, HEPES, Penicillin/Streptomycin. After 30 min incubation glucose concentrations, supernatant was taken for insulin measurements and pelleted islets were taken in acid ethanol (0.18M HCl in 70% ethanol) for insulin measurements in islets (Alpco). Islet protein concentration was measured using the BCA method (Thermo Fisher).
Insulin secretion during static incubation. After overnight culture (37 C, 5% CO2, 95% O2 in humid chamber) of isolated islets in RPMI 1640 (Mediatech) containing 5 mM glucose, 1% each Na-Pyruvate, HEPES, Penicillin/Streptomycin and 0.2% bovine serum albumin (BSA), islets were switched to either 10 or 20 mM glucose containing RPMI 1640. […] After 30 min incubation glucose concentrations, supernatant was taken for insulin measurements and pelleted islets were taken in acid ethanol (0.18M HCl in 70% ethanol) for insulin measurements in islets (ELISA, Alpco). Islet protein concentration was measured using the BCA method (Thermo Fisher).

[6] = target: T2, Kiss1R; test: ipGTT with ip coinjection of kisspeptin and glucose; format: in vivo
Description: Intraperitoneal glucose tolerance (ipGTT) and insulin tolerance (ipITT) tests were performed according to standard protocols (Song et al., 2013; Song et al., 2011). After 9 am-3 pm fasting, animals were administered 20% D-glucose (via ip injection), insulin 0.5 U/kg i.p. (Novolin), glucagon (100 μg/kg i.p. (Sigma)). […] Plasma for glucagon measurements was drawn from mice in the fed state at 9 am, unless otherwise noted for fasting studies. Plasma glucagon (Alpco) and kisspeptin1 (USCN Life Sciences Inc. E92559Ra) were measured by ELISA according to manufacturer's instructions including dilution of samples.

[7] = target: T3, receptor for the incretin hormone glucagon-like peptide-1 (GLP-1) (Mus musculus, UniProt O35659); test: Islet cAMP synthesis in response to exendin-4; format: cell-based
T3 construct: from tissue; host or cells: isolated mouse pancreatic islets (Kiss1Rfl/fl and Panc-ΔKiss1R)
T3 sequence (O35659 22-463): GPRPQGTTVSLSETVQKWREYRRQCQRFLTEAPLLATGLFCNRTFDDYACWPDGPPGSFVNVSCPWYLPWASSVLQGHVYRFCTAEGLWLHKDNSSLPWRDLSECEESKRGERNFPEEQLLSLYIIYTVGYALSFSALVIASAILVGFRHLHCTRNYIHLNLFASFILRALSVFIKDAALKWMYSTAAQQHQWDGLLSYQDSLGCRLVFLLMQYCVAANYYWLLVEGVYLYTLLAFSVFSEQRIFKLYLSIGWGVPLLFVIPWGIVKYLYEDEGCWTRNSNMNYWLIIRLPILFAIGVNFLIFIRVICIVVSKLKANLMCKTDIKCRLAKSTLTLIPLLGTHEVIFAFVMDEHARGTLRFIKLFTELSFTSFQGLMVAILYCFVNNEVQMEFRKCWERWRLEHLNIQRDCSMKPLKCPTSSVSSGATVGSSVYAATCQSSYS
Description: as §1

[8] = Kiss1Rfl/fl and Panc-DKiss1R islets

liver Kiss1 expression ([1]; HFD and Lepr db/db mice): reduction
liver gluconeogenic gene expression (Pparg1a, Src1, G6P, Pck1 mRNA) ([1]; HFD and Lepr db/db mice): reduction
liver pCREB ([1]; HFD and Lepr db/db mice): corresponding reductions
CREB occupancy of CRE 1 and 2 in the Kiss1 promoter ([1]; HFD and Lepr db/db mice, in vivo ChIP): reduces CREB occupancy
basal glycemia and GT ([1]; HFD and Lepr db/db mice, single dose 50 mg/kg i.p. 60 min before ipGTT, versus GAC): improved basal glycemia as well as GT
circulating plasma glucagon levels ([1]; HFD fed and Lepr db/db mice, fed state, 60 min after treatment): remained unchanged
Compound: CCC(CC)C(=O)Nc1sc2c(c1C#N)CCC(C(C)(C)CC)C2 (stereo not drawn) [GAI, N-(3-Cyano-6-(1,1-dimethylpropyl)-4,5,6,7-tetrahydro-1-benzothien-2-yl)-2-ethylbutanamide]

Catalase (Oxidative stress) ([2]; Hyperglycemia Glucose 10 mM): 8.8 ± 0.5
Catalase (Oxidative stress) ([2]; Normoglycemia Glucose 5 mM): 6.2 ± 0.6
islet cAMP production in response to exendin-4 (E4) ([3]; Kiss1Rfl/fl (WT) islets): impaired islet cAMP production
islet cAMP concentrations ([3]; WT mouse islets, 10 mM glucose, 10 nM): lower cAMP concentrations
baseline and E4-induced cAMP concentrations in Panc-DKiss1R islets ([3]; islets lacking Kiss1R): not affected
E4-potentiated GSIS, first and second phase [4]: suppressed
first (0-10 min after glucose stimulation) and second phases of GSIS ([4]; 10 mM glucose): suppressed
lowest concentration suppressing GSIS ([5]; Kiss1Rfl/fl mouse islets, serum-free media, 10 or 20 mM glucose): 0.1 nM
E4-potentiated GSIS ([5]; mouse islets cultured at 10 mM glucose, static incubation): dose-dependently suppressed
in vivo GSIS in control (Kiss1rfl/fl, WT) mice ([6]; 10 nmol ip with glucose during ipGTT): suppressed GSIS
in vivo GSIS in Panc-DKiss1R mice ([6]; 10 nmol ip, mice lacking pancreas Kiss1R): did not affect GSIS
Compound: Gly-Thr-Ser-Leu-Ser-Pro-Pro-Pro-Glu-Ser-Ser-Gly-Ser-Arg-Gln-Gln-Pro-Gly-Leu-Ser-Ala-Pro-His-Ser-Arg-Gln-Ile-Pro-Ala-Pro-Gln- Gly-Ala-Val-Leu-Val-Gln-Arg-Glu- Lys-Asp-Leu-Pro-Asn-Tyr-Asn-Trp-Asn-Ser-Phe-Gly-Leu-Arg-Phe-NH2 [K54]
ATF5 (NLRP3 Inflammasome) ([2]; Hyperglycemia Glucose 10 mM): 1.9 ± 0.4
CHOP (ER stress) ([2]; Hyperglycemia Glucose 10 mM): 2.2 ± 0.5
IL-1β (NLRP3 Inflammasome) ([2]; Hyperglycemia Glucose 10 mM): 1.9 ± 0.2
IRS2 (cAMP dependent) ([2]; Hyperglycemia Glucose 10 mM): 0.6 ± 0.2
PDI (ER stress) ([2]; Hyperglycemia Glucose 10 mM): 1.8 ± 0.3
PDX1 (cAMP dependent) ([2]; Hyperglycemia Glucose 10 mM): 0.5 ± 0.3
SOD1 (Oxidative stress) ([2]; Hyperglycemia Glucose 10 mM): 3.2 ± 0.3
SOD2 (Oxidative stress) ([2]; Hyperglycemia Glucose 10 mM): 2.4 ± 0.4
Spliced XBP-1 (ER stress) ([2]; Hyperglycemia Glucose 10 mM): 2.1 ± 0.4
TXNIP (NLRP3 Inflammasome) ([2]; Hyperglycemia Glucose 10 mM): 5.5 ± 0.3
Total XBP-1 (ER stress) ([2]; Hyperglycemia Glucose 10 mM): 1.5 ± 0.3
ATF5 (NLRP3 Inflammasome) ([2]; Normoglycemia Glucose 5 mM): 1.4 ± 0.4
CHOP (ER stress) ([2]; Normoglycemia Glucose 5 mM): 1.9 ± 0.4
IL-1β (NLRP3 Inflammasome) ([2]; Normoglycemia Glucose 5 mM): 1.7 ± 0.3
IRS2 (cAMP dependent) ([2]; Normoglycemia Glucose 5 mM): 0.5 ± 0.3
PDI (ER stress) ([2]; Normoglycemia Glucose 5 mM): 1.4 ± 0.4
PDX1 (cAMP dependent) ([2]; Normoglycemia Glucose 5 mM): 0.6 ± 0.2
SOD1 (Oxidative stress) ([2]; Normoglycemia Glucose 5 mM): 2.1 ± 0.4
SOD2 (Oxidative stress) ([2]; Normoglycemia Glucose 5 mM): 1.9 ± 0.3
Spliced XBP-1 (ER stress) ([2]; Normoglycemia Glucose 5 mM): 1.8 ± 0.5
TXNIP (NLRP3 Inflammasome) ([2]; Normoglycemia Glucose 5 mM): 4.8 ± 1.1
Total XBP-1 (ER stress) ([2]; Normoglycemia Glucose 5 mM): 1.4 ± 0.3
GSIS at very high kisspeptin concentration [5, 8]: GSIS stimulation from both Kiss1Rfl/fl and Panc-DKiss1R islets
GSIS from Panc-DKiss1R islets ([5]; islets lacking Kiss1R, nanomolar concentrations): impervious to K54-mediated GSIS suppression
GSIS from Kiss1Rfl/fl (WT) mouse islets ([5]; static incubation, nanomolar concentrations (0-100 nM), 10 or 20 mM glucose): suppressed GSIS in a dose-dependent manner
glucose tolerance in WT mice ([6]; acute administration, 10 nmol ip): impaired glucose tolerance

Compound: exendin-4 [E4]
islet cAMP synthesis [7, 8]: stimulates cAMP synthesis
reversal of K10-reduced cAMP production ([7]; isolated WT mouse islets treated with K10): partially reversed
